Target: T1, SIRT1 (Homo sapiens, UniProt Q96EB6)
T1 sequence (Q96EB6 1-747): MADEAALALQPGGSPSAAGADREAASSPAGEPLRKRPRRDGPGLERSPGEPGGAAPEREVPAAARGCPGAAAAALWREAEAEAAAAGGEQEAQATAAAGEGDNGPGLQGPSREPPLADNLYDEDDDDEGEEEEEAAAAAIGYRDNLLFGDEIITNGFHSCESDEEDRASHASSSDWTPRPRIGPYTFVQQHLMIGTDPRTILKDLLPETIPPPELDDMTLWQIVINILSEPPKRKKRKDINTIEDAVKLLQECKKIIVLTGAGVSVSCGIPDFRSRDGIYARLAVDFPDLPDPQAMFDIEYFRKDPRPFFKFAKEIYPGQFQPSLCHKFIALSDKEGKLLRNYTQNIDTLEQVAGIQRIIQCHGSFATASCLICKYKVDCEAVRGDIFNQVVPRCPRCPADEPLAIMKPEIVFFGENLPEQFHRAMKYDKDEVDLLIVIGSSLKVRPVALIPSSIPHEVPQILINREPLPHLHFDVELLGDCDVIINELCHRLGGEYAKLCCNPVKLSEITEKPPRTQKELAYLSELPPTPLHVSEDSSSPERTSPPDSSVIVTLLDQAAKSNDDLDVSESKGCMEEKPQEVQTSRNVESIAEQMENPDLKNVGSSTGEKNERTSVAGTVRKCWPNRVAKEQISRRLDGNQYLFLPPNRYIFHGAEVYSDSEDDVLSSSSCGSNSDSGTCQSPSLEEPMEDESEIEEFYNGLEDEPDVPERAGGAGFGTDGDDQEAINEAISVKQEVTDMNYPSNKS
Experiment: Mass spectrometry based assay to identify modulators of SIRT1 activity (deacetylation of p53-based acetylated peptide)
Type: biochemical
Settings: 10 nM SIRT1, 0.5 μM peptide substrate, 120 μM βNAD+, 25 minutes at 25° C.; for EC1.5 μM: SIRT1 activation

% Fold Act. (percent maximum fold activation)	EC1.5 μM	SMILES
A (Fold activation>200%)	A (EC1.5<1.0 μM)	Cn1ccnc1C(=O)Nc1cccc2c(=O)cc(-c3cccc(C(F)(F)F)c3)[nH]c12 [Compound 420]
A (Fold activation>200%)	A (EC1.5<1.0 μM)	Cn1c(-c2cccc(C(F)(F)F)c2)nc2c(C(=O)Nc3nnc(C(C)(C)C)s3)cccc2c1=O [Compound 297]
B (Fold Activation<200%)	C (EC1.5>25 μM)	Cn1c(-c2cnccn2)nc2c(C(=O)Nc3ccccn3)cccc2c1=O [Compound 258]
A (Fold activation>200%)	A (EC1.5<1.0 μM)	Cn1c(-c2cccc(C(F)(F)F)c2)nc2c(NC(=O)c3cccc(N4CCCC4)n3)cccc2c1=O [Compound 342]
B (Fold Activation<200%)	C (EC1.5>25 μM)	O=C(Nc1ccccn1)c1cccc2c(=O)[nH]c(-c3cccc(C(F)F)c3)nc12 [Compound 319]
A (Fold activation>200%)	B (EC1.5 1-25 μM)	O=C(Nc1nccs1)c1cccc2c(=O)cc(-c3ccccc3C(F)F)[nH]c12 [Compound 435]
A (Fold activation>200%)	A (EC1.5<1.0 μM)	Cc1cc(C)nc(NC(=O)c2cccc3c(=O)n(C)c(-c4cccc(C(F)(F)F)c4)nc23)c1 [Compound 306]
A (Fold activation>200%)	A (EC1.5<1.0 μM)	Cc1cc(C(=O)Nc2cccc3c(=O)cc(-c4cccc(C(F)(F)F)c4)[nH]c23)n(C)n1 [Compound 410]
A (Fold activation>200%)	A (EC1.5<1.0 μM)	Cc1cc(NC(=O)c2cccc3c(=O)cc(-c4cccc(C(F)(F)F)c4)[nH]c23)on1 [Compound 406]
B (Fold Activation<200%)	B (EC1.5 1-25 μM)	Cn1ccc(-c2nc3c(C(=O)Nc4ccccn4)cccc3c(=O)n2C)n1 [Compound 228]
A (Fold activation>200%)	A (EC1.5<1.0 μM)	Cn1c(-c2cccc(C(F)(F)F)c2)nc2c(NC(=O)c3cccc(N4CCOCC4)n3)cccc2c1=O [Compound 341]
B (Fold Activation<200%)	B (EC1.5 1-25 μM)	O=C(NC1CCOC1=O)c1cccc2c(=O)cc(-c3cccc(C(F)(F)F)c3)[nH]c12 (stereo not shown) [Compound 413]
B (Fold Activation<200%)	A (EC1.5<1.0 μM)	O=C(Nc1cnccn1)c1cccc2c(=O)cc(-c3cccc(Cl)c3)[nH]c12 [Compound 434]
A (Fold activation>200%)	A (EC1.5<1.0 μM)	Cn1c(-c2cccc(C(F)(F)F)c2)nc2c(NC(=O)c3ccccn3)cccc2c1=O [Compound 239, N-(3-methyl-4-oxo-2-(3-(trifluoromethyl)phenyl)-3,4-dihydroquinazolin-8-yl)picolinamide]
A (Fold activation>200%)	A (EC1.5<1.0 μM)	COc1ccc(NC(=O)c2cccc3c(=O)n(C)c(-c4cccc(C(F)(F)F)c4)nc23)cc1OC [Compound 220, N-(3,4-dimethoxyphenyl)-3-methyl-4-oxo-2-(3-(trifluoromethyl)phenyl)-3,4-dihydroquinazoline-8-carboxamide]
B (Fold Activation<200%)	C (EC1.5>25 μM)	Cn1c(-c2cncnc2)nc2c(C(=O)Nc3ccccn3)cccc2c1=O [Compound 260]
A (Fold activation>200%)	A (EC1.5<1.0 μM)	Cc1nc(NC(=O)c2cccc3c(=O)n(C)c(-c4cccc(C(F)(F)F)c4)nc23)sc1C [Compound 298]
B (Fold Activation<200%)	B (EC1.5 1-25 μM)	Cc1ncsc1-c1nc2c(C(=O)Nc3ccccn3)cccc2c(=O)n1C [Compound 226]
B (Fold Activation<200%)	B (EC1.5 1-25 μM)	Cn1c(-c2cccnc2)nc2c(NC(=O)c3cnccn3)cccc2c1=O [Compound 278]
A (Fold activation>200%)	A (EC1.5<1.0 μM)	Cn1c(-c2cccc(C(F)(F)F)c2)nc2c(C(=O)Nc3ccccn3)cccc2c1=O [Compound 206]
A (Fold activation>200%)	A (EC1.5<1.0 μM)	Cn1c(-c2cccc(C(F)(F)F)c2)nc2c(C(=O)Nc3cccc(OCC(O)CO)c3)cccc2c1=O (stereo not shown) [Compound 360]

% Fold Act. (percent maximum fold activation)	EC1.5 μM	SMILES
B (Fold Activation<200%)	C (EC1.5>25 μM)	Cn1ccc(-c2nc3c(NC(=O)c4cnccn4)cccc3c(=O)n2C)n1 [Compound 290]
B (Fold Activation<200%)	C (EC1.5>25 μM)	Cn1c(-c2cccc(C(F)(F)F)c2)nc2c(NC(=O)c3cocn3)cccc2c1=O [Compound 250]
B (Fold Activation<200%)	C (EC1.5>25 μM)	Cn1ccnc1-c1nc2c(C(=O)Nc3ccccn3)cccc2c(=O)n1C [Compound 227]
B (Fold Activation<200%)	C (EC1.5>25 μM)	CN1C(=O)CCC1C(=O)Nc1cccc2c(=O)n(C)c(-c3cccc(C(F)(F)F)c3)nc12 (stereo not shown) [Compound 340]
B (Fold Activation<200%)	C (EC1.5>25 μM)	Cn1c(-c2ccc(CN3CCCC3)cc2)nc2c(C(=O)Nc3ccccn3)cccc2c1=O [Compound 275, 3-methyl-4-oxo-N-(pyridin-2-yl)-2-(4-(pyrrolidin-1-ylmethyl)phenyl)-3,4-dihydroquinazoline-8-carboxamide]
B (Fold Activation<200%)	C (EC1.5>25 μM)	Cn1c(-c2cccc(C(F)(F)F)c2)nc2c(NC(=O)c3cncnc3)cccc2c1=O [Compound 241]
A (Fold activation>200%)	B (EC1.5 1-25 μM)	Cn1c(-c2cccc(C(F)(F)F)c2)nc2c(NC(=O)C3CCCC(=O)N3)cccc2c1=O (stereo not shown) [Compound 365]
A (Fold activation>200%)	A (EC1.5<1.0 μM)	O=C(Nc1nccs1)c1cccc2c(=O)cc(-c3cccc(C(F)(F)F)c3)[nH]c12 [Compound 404]
A (Fold activation>200%)	A (EC1.5<1.0 μM)	Cc1cc(NC(=O)c2cccc3c(=O)cc(-c4cccc(C(F)(F)F)c4)[nH]c23)n(C)n1 [Compound 407]
B (Fold Activation<200%)	B (EC1.5 1-25 μM)	Cn1c(-c2cccc(OC(F)(F)F)c2)nc2c(C(=O)Nc3nccs3)cccc2c1=O [Compound 200]
B (Fold Activation<200%)	C (EC1.5>25 μM)	Cn1c(-c2cscn2)nc2c(NC(=O)c3cnccn3)cccc2c1=O [Compound 283]
A (Fold activation>200%)	A (EC1.5<1.0 μM)	Cn1c(-c2cccc(C(F)(F)F)c2)nc2c(C(=O)Nc3cccc(CN4CCCC4)n3)cccc2c1=O [Compound 351]
A (Fold activation>200%)	A (EC1.5<1.0 μM)	O=C(Nc1cccc2c(=O)[nH]c(-c3ccccc3C(F)F)nc12)c1cnccn1 [Compound 329]
A (Fold activation>200%)	B (EC1.5 1-25 μM)	Cn1c(-c2ccc(N3CCOCC3)cc2)nc2c(C(=O)Nc3ccccn3)cccc2c1=O [Compound 217]
A (Fold activation>200%)	A (EC1.5<1.0 μM)	Cn1c(-c2cccc(OC(F)F)c2)nc2c(NC(=O)c3cnccn3)cccc2c1=O [Compound 315]
A (Fold activation>200%)	B (EC1.5 1-25 μM)	Cn1c(-c2ccccc2OC(F)F)nc2c(C(=O)Nc3ccccn3)cccc2c1=O [Compound 327]
A (Fold activation>200%)	A (EC1.5<1.0 μM)	Cn1c(-c2cccc(C(F)F)c2)nc2c(NC(=O)c3cnccn3)cccc2c1=O [Compound 310]
A (Fold activation>200%)	A (EC1.5<1.0 μM)	CCc1nnc(NC(=O)c2cccc3c(=O)cc(-c4cccc(C(F)(F)F)c4)[nH]c23)s1 [Compound 400]
B (Fold Activation<200%)	C (EC1.5>25 μM)	Cn1cc(-c2nc3c(NC(=O)c4cnccn4)cccc3c(=O)n2C)cn1 [Compound 291]
B (Fold Activation<200%)	B (EC1.5 1-25 μM)	Cc1cc(NC(=O)c2cccc3c(=O)n(C)c(-c4cccc(C(F)(F)F)c4)nc23)sn1 [Compound 296]
